Laboratory results reported in ChEMBL document CHEMBL4130539, “Novel ureidopropanamide based N-formyl peptide receptor 2 (FPR2) agonists with potential application for central nervous system disorders characterized by neuroinflammation” (Eur J Med Chem, 2017).

Tests used:
[1] = biological target: T1, N-formyl peptide receptor 2 (Homo sapiens, UniProt P25090); experiment: Agonist activity at human FPR2 expressed in human HL60 cells assessed as induction of calcium mobilization measured every 5 secs for 240 secs by Fluo-4-AM dye based fluorometric method; format: functional, cell-based
T1 sequence (P25090 whole entry): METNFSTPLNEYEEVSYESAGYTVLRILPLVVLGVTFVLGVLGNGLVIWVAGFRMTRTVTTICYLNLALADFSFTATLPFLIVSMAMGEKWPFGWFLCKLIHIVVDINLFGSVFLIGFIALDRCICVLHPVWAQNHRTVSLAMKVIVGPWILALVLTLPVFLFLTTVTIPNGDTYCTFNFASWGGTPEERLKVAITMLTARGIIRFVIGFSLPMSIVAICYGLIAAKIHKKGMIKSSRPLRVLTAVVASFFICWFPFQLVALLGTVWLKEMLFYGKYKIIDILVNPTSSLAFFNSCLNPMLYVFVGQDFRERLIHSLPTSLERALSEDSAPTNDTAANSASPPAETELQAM

[2] = biological target: T1, N-formyl peptide receptor 2; experiment: Agonist activity at FPR2 in human neutrophils assessed as induction of calcium mobilization measured every 5 secs for 240 secs by Fluo-4-AM dye based fluorometric method; format: functional
[3] = biological target: T2, fMet-Leu-Phe receptor (Homo sapiens, UniProt P21462); experiment: Agonist activity at human FPR1 expressed in human HL60 cells assessed as induction of calcium mobilization measured every 5 secs for 240 secs by Fluo-4-AM dye based fluorometric method; format: functional, cell-based
T2 sequence (P21462 whole entry): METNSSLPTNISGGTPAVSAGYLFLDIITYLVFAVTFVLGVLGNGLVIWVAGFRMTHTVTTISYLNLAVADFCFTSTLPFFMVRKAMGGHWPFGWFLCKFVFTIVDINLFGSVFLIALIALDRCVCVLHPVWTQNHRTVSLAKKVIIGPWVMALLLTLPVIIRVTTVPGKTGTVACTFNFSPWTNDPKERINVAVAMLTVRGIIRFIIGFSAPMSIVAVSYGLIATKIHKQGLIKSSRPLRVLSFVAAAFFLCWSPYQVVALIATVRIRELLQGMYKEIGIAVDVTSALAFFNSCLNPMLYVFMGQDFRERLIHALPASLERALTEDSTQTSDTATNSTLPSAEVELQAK

[4] = Metabolic stability in rat liver microsomes assessed as parent compound remaining at 10 uM preincubated for 10 mins followed by NADPH addition measured after 30 mins by liquid chromatographic method; format: ADME, microsome; details: 0.5 h
[5] = biological target: T3, N-formyl peptide receptor 2 (Homo sapiens) (UniProt P25090); experiment: Agonist activity at human FPR2 expressed in human HL60 cells assessed as induction of calcium mobilization measured every 5 secs for 240 secs by Fluo-4-AM dye based fluorometric method relative to WKYMVM; format: functional, cell-based
T3 sequence (whole entry): T1 sequence (P25090 whole entry)

[6] = biological target: T4, fMet-Leu-Phe receptor (Homo sapiens) (UniProt P21462); experiment: Agonist activity at human FPR1 expressed in human HL60 cells assessed as induction of calcium mobilization measured every 5 secs for 240 secs by Fluo-4-AM dye based fluorometric method relative to fMLF; format: functional, cell-based
T4 sequence (whole entry): T2 sequence (P21462 whole entry)

[7] = biological target: T3, N-formyl peptide receptor 2 (Homo sapiens); experiment: Agonist activity at FPR2 in human neutrophils assessed as induction of calcium mobilization measured every 5 secs for 240 secs by Fluo-4-AM dye based fluorometric method relative to fMLF
[8] = Intrinsic clearance in rat liver microsomes at 10 uM preincubated for 10 mins followed by NADPH addition by liquid chromatographic method; format: ADME, microsome
[9] = Half life in rat liver microsomes at 10 uM preincubated for 10 mins followed by NADPH addition by liquid chromatographic method; format: ADME, microsome

Row | SMILES | EC50 ([1]; read-out: EC50) [nM] | EC50 ([2]; read-out: EC50) [nM] | EC50 ([3]; read-out: EC50) [nM] | Stability [4] [%] | Efficacy [5] [%] | Efficacy [6] [%] | Efficacy [7] [%] | EC50 [1] | EC50 [2] | EC50 [3] | Microsomal intrinsic clearance (CLint) [8] [µL/min/mg] | t1/2 [9] [min]
1 | COc1ccc(NC(=O)N[C@@H](Cc2ccc(C#N)cc2)C(=O)NCC2(c3ccc(F)c(Cl)c3)CC2)cc1 | 3400 | 330 | 450 | 10 | 60 | 115 | 155 | – | – | – | – | –
2 | COc1ccc(NC(=O)N[C@H](Cc2ccc(C#N)cc2)C(=O)NCC2(c3ccc(F)c(Cl)c3)CC2)cc1 | 1800 | 730 | 630 | 5 | 60 | 100 | 115 | – | – | – | – | –
3 | O=C(Nc1ccccc1)N[C@@H](Cc1c[nH]c2ccccc12)C(=O)NCC1(c2ccccc2)CC1 | 6700 | 1500 | 2400 | 5 | – | – | – | – | – | – | – | –
4 | COc1ccc(NC(=O)N[C@@H](Cc2ccc(C#N)cc2)C(=O)NCC2(c3ccc(OC(F)(F)F)cc3)CC2)cc1 | – | – | – | 51 | – | – | – | Not Active | Not Active | Not Active | – | –
5 | O=C(Nc1ccc(F)cc1)N[C@H](Cc1c[nH]c2ccccc12)C(=O)NCC1(c2ccccc2)CC1 | – | – | – | – | – | – | – | Not Active | Not Active | Not Active | – | –
6 | Cc1ccc(C2(CNC(=O)[C@@H](Cc3ccc(C#N)cc3)NC(=O)Nc3ccc(F)cc3)CC2)cc1F | – | – | – | 37 | – | – | – | Not Active | Not Active | Not Active | 10.04 | 59
7 | COc1ccc(NC(=O)N[C@H](Cc2ccc(C#N)cc2)C(=O)NCC2(c3ccc(C)c(F)c3)CC2)cc1 | – | – | – | 10 | – | – | – | Not Active | Not Active | Not Active | – | –
8 | N#Cc1ccc(C[C@H](NC(=O)Nc2ccc(F)cc2)C(=O)NCC2(c3ccc(OC(F)(F)F)cc3)CC2)cc1 | – | – | – | 80 | – | – | – | Not Active | Not Active | Not Active | – | –
9 | Cc1ccc(C2(CNC(=O)[C@H](Cc3ccc(C#N)cc3)NC(=O)Nc3ccc(F)cc3)CC2)cc1F | 3000 | 1700 | 5900 | 39 | – | – | – | – | – | – | – | –
10 | O=C(Nc1ccccc1)N[C@H](Cc1c[nH]c2ccccc12)C(=O)NCC1(c2ccccc2)CC1 | – | – | – | 4 | – | – | – | Not Active | Not Active | Not Active | – | –
11 | COc1ccc(NC(=O)N[C@H](Cc2c[nH]c3ccccc23)C(=O)NCC2(c3ccccc3)CC2)cc1 | 6500 | – | – | 4 | – | – | – | – | Not Active | Not Active | – | –
12 | N#Cc1ccc(C[C@@H](NC(=O)Nc2ccc(F)cc2)C(=O)NCC2(c3ccc(OC(F)(F)F)cc3)CC2)cc1 | – | – | – | 88 | – | – | – | Not Active | Not Active | Not Active | – | –
13 | COc1ccc(NC(=O)N[C@@H](Cc2c[nH]c3ccccc23)C(=O)NCC2(c3ccccc3)CC2)cc1 | 110 | 1400 | 950 | 3 | – | – | – | – | – | – | – | –
14 | COc1ccc(NC(=O)N[C@H](Cc2ccc(C#N)cc2)C(=O)NCC2(c3ccc(OC(F)(F)F)cc3)CC2)cc1 | – | – | – | 43 | – | – | – | Not Active | Not Active | Not Active | – | –
15 | O=C(Nc1ccc([N+](=O)[O-])cc1)N[C@H](Cc1c[nH]c2ccccc12)C(=O)NCC1(c2ccccc2)CC1 | – | – | – | 15 | – | – | – | – | – | – | – | –
16 | O=C(Nc1ccc(F)cc1)N[C@@H](Cc1c[nH]c2ccccc12)C(=O)NCC1(c2ccccc2)CC1 | 2000 | – | 18800 | 4 | – | – | – | – | Not Active | – | – | –
17 | COc1ccc(NC(=O)N[C@@H](Cc2ccc(C#N)cc2)C(=O)NCC2(c3ccc(C)c(F)c3)CC2)cc1 | 16300 | 1700 | 10300 | 8 | – | – | – | – | – | – | – | –
